Results on 1 molecule are retold here after patent publication US9273041B2, “Compounds for the treatment of dyslipidemia and related diseases” (Cadila Healthcare Limited, priority 2012, dated 2016).

The target of the assay is PCSK9 (Homo sapiens, UniProt Q8NBP7). The experiment in a line: PCSK9-LDLR in vitro binding assay (solid phase, ELISA readout). Particulars: read-out: % Inhibition PCSK 9. The method, then:
The PCSK9-LDLR in vitro binding Assay is a quantitative solid phase binding assay between PCSK9 and recombinant LDLR. Plates were pre-coated with a recombinant LDLR-AB domain, which binds PCSK9. Test compound at different concentration was added to the PCSK9 and added to LDLR immobilized on the wells. The amount of bound PCSK9 is measured by binding it with biotinylated anti-His-tag monoclonal antibody, followed by binding with horseradish peroxidase conjugated streptavidin substrate. The color was quantified by ELISA reader at […] which reflects the relative amount of PCSK9 that binds to LDLR in presence and absence of the inhibitor. EC50 values were calculated by nonlinear regression analysis using graph pad prism software. Each concentration point represents values in duplicates.
A general note: An ELISA detects its analyte on a solid surface through an enzyme-linked reagent.

PCSK9, sequence (Q8NBP7 153-692): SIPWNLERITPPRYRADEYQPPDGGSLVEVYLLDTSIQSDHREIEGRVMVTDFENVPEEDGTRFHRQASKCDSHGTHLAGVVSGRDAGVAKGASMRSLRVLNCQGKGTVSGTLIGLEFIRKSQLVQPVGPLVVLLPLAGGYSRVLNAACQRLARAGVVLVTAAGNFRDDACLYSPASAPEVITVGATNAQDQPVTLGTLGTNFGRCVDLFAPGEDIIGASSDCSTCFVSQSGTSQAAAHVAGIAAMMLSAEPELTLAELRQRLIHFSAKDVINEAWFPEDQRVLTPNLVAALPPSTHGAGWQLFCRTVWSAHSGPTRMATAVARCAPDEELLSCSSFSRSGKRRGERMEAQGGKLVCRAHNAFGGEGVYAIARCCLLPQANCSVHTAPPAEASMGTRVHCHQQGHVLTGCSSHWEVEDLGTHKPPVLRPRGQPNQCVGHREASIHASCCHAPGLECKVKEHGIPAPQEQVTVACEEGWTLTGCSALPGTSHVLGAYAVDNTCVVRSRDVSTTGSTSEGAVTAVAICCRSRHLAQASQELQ
PCSK9, sequence (Q8NBP7 31-152 partner limits assumed): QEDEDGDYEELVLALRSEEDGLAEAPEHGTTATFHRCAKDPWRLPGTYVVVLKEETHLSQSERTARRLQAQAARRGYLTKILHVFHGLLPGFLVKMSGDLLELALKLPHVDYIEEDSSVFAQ

As to `COc1cc(-c2ccc(OCC(=O)NCC3CCOCC3)cc2)nn1Cc1ccc(C(F)(F)F)cc1` [Example 38, 2-(4-(5-methoxy-1-(4-(trifluoromethyl)benzyl)-1H-pyrazol-3-yl)phenoxy)-N-((tetrahydro-2H-pyran-4-yl)methyl)acetamide], the inhibition (as a rule, the drop in the measured response relative to a control, in per cent) at 1 µM (test compound concentration 1 μM) worked out at 27%. Besides, the inhibition at 10 µM (test compound concentration 10 μM) was 39%. For the same molecule, the inhibition at 100 µM (test compound concentration 100 μM) was 59%.
